Data as given in PMC5407854, “Inhibitor of ppGalNAc-T3-mediated O-glycosylation blocks cancer cell invasiveness and lowers FGF23 levels” (eLife, 2017).

T1: ppGalNAc-T3 (Homo sapiens, UniProt Q14435)
T1 construct: gene GALNT3; purified lumenal domain (containing catalytic and lectin domains)
T1 sequence (Q14435 38-633 limits assumed): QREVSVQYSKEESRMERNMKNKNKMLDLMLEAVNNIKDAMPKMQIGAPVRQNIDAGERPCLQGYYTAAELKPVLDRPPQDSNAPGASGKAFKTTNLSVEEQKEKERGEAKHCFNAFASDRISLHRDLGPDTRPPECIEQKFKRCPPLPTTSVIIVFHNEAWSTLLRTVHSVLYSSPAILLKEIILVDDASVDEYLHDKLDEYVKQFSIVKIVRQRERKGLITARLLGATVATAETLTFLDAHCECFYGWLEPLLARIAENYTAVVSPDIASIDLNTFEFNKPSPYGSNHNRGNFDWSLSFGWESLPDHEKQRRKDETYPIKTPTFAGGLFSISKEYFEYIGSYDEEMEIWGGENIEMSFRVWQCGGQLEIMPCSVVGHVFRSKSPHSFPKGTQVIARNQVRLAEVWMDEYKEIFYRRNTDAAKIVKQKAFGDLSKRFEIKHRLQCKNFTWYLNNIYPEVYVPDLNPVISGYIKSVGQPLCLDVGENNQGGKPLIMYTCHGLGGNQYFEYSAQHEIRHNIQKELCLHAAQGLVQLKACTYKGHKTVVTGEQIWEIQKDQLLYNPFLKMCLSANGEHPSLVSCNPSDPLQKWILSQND


Assays:
ppGalNAc-T3 = biological target: T1, ppGalNAc-T3; experiment: intrinsic tryptophan fluorescence quenching; also UDP-Glo inhibition of purified enzyme (IC50 […]); type: binding
[1] = anti-FLAG immunoblot of cell lysates, with or without chloroquine; conditions: glycan lost; control: untreated

Row | Kd (ppGalNAc-T3) [µM] | Molecule | expression_or_secretion [1]
1 | ~17 | O=C(Nc1ccc(Nc2ccncc2)cc1)c1ccc(Nc2ccnc3ccc([N+](=O)[O-])cc23)cc1 [compound 1614, T3Inh-1] | –
2 | – | FGF23: T3Inh-1 (protein) parent chain: MLGARLRLWVCALCSVCSMSVLRAYPNASPLLGSSWGGLIHLYTATARNSYHLQIHKNGHVDGAPHQTIYSALMIRSEDAGFVVITGVMSRRYLCMDFRGNIFGSHYFDPENCRFQHQTLENGYDVYHSPQYHFLVSLGRAKRAFLPGMNPPPYSQFLSRRNEIPLIHFNTPIPRRHTRSAEDDSERDPLNVLKPRARMTPAPASCSQELPSAEDNSPMASDPLGVVRGGRVNTHAGGTGPEGCRPFAKFI | no change
